Consider three compounds from BindingDB's records for doi:10.1021/jm00126a039 (University of Wisconsin-Madison, 1989).

The target in this assay is T1, Gastricsin (Rattus norvegicus, UniProt P04073).
T1 sequence (P04073 whole entry): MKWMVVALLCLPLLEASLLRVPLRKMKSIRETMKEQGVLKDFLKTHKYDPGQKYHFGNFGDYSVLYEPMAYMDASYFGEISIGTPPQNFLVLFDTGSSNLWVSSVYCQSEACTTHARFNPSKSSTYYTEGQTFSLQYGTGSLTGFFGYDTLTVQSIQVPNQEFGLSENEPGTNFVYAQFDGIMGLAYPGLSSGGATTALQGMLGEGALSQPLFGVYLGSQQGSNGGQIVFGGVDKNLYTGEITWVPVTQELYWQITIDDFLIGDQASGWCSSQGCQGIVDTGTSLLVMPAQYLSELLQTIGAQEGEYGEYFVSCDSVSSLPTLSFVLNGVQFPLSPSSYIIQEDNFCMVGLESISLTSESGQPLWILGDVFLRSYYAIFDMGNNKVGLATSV
The assay is described as follows: ChEBML_154148. The source says:
Inhibition of enzyme pepsin
`CC(C)CCNC(=O)[C@H](C)NC(=O)C[C@H](O)[C@H](CC(C)C)NC(=O)[C@@H](NC(=O)CC(C)C)C(C)C` [3-Hydroxy-6-methyl-4-[3-methyl-2-(3-methyl-butyrylamino)-butyrylamino]-heptanoic acid [1-(3-methyl-butylcarbamoyl)-ethyl]-amide] displayed an inhibitory constant (Ki) of 3 nM.
In turn, `CCC(NC(=O)[C@H](C)NC(=O)[C@H](C)C[C@H](O)[C@H](CC(C)C)NC(=O)[C@@H](NC(=O)CC(C)C)C(C)C)C(=O)O` (stereo partly drawn) displayed a Ki of 3 nM.
In turn, `CCC(NC(=O)[C@H](C)NC(=O)[C@H](C)CC(=O)[C@H](CC(C)C)NC(=O)[C@@H](NC(=O)CC(C)C)C(C)C)C(=O)O` (stereo partly drawn) registered a Ki of 110 nM.

By Ki is commonly meant the equilibrium dissociation constant of an inhibitor or competing ligand from its target.
